The record followed here is patent publication US20040198731A1, “Aminoalkyl-substituted aromatic bicyclic compounds, methods for their preparation and their use as pharmaceuticals” (Aventis Pharma Deutschland GmbH, priority 2001, published 2004).

T1 sequence (Q99705 whole entry): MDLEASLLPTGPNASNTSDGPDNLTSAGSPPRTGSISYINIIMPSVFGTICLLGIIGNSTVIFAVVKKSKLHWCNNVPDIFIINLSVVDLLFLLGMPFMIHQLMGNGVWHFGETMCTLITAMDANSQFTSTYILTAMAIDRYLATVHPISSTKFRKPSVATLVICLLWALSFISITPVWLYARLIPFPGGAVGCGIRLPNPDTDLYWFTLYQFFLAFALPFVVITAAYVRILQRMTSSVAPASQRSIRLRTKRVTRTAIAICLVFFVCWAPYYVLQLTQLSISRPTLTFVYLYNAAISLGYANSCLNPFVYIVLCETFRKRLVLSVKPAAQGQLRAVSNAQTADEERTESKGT

The assay has as its target T1, human MCH receptor (Homo sapiens, UniProt Q99705).
T1 construct: expressed in transfected cells
As to the kind of experiment: Functional measurement of cellular calcium flow (FLIPR) in recombinant HEK293 cells expressing human MCH receptor. The assay is classed as cell-based. The conditions noted are these: cellular assay, calcium flow after addition of agonist (MCH), HEK293 (PEAK Stable Cells) expressing human MCH receptor. The text has this:
In two simultaneously published articles in Nature (Nature, 400:261-264, 1999; Nature, 400:265-269, 1999, see enclosure), two groups separately described a highly specific receptor for melanin-concentrating hormone (MCH). MCH takes over important functions in the control of food intake. Compounds acting on the MCH receptor therefore have anorectic action and are suitable for the treatment of obesity. The test for anorectic action of the inventive compounds of formula I was therefore carried out as follows.
Functional measurements for determination of IC50
Cloning of the cDNA for human MCH receptor, preparation of a recombinant HEK293 cell line expressing human MCH receptor and functional measurements with said recombinant cell line were carried out according to the description by Audinot et al. (J. Biol. Chem., 276, 13554-13562, 2001). In contrast to the reference, however, plasmid pEAK8 from EDGE Biosystems (USA) was used for constructing the expression vector. A transformed HEK cell line named “PEAK Stable Cells” (likewise from EDGE Biosystems) served as host for transfection. The functional measurements of cellular calcium flow, after addition of agonists (MCH), in the presence of the ligand of the invention was carried out with the aid of the FLIPR instrument from Molecular Devices (USA), using the manufacturer's protocols.
`CCCCOc1ccc(NC(=O)Nc2ccc3c(ccn3CCN(C)C)c2)cc1` [Example 2, 1-(4-Butoxyphenyl)-3-[1-(2-dimethylaminoethyl)-1H-indol-5-yl]urea]: the IC50 was 150 nM. To `Cn1c(CN2CCCC2)cc2cc(NC(=O)Nc3ccc(Oc4ccccc4)cc3)ccc21` [Example 3, 1-(1-Methyl-2-pyrrolidin-1-ylmethyl-1H-indol-5-yl)-3-(4-phenoxyphenyl)urea] belongs 290 nM.

Turning to `Cc1nc2cc(NC(=O)Nc3ccc(OC(C)C)cc3)ccc2n1CCN(C)C` [Example 5, 1-[1-(2-Dimethylaminoethyl)-2-methyl-1H-benzoimidazol-5-yl]-3-(4-isopropoxyphenyl)urea], the IC50 was 500 nM. To `CCN1CCCC1Cn1c(C)nc2cc(NC(=O)Nc3ccc(OC(C)C)cc3)ccc21` (stereo not shown) [Example 6, 1-[1-(1-Ethylpyrrolidin-2-ylmethyl)-2-methyl-1H-benzoimidazol-5-yl]-3-(4-isopropoxyphenyl)urea] belongs 2340 nM. For `Cc1nc2cc(NC(=O)Nc3ccc(OC(C)C)cc3)ccc2n1CCN1CCCCC1` [Example 7, 1-(4-Isopropoxyphenyl)-3-[2-methyl-1-(2-piperidin-1-ylethyl)-1H-benzoimidazol-5-yl]urea], the IC50 was found to be 450 nM.

For the molecule `Cc1nc2cc(NC(=O)Nc3ccc(OC(C)C)cc3)ccc2n1CCN1CCOCC1` [Example 8, 1-(4-Isopropoxyphenyl)-3-[2-methyl-1-(2-morpholin-4-yl-ethyl)-1H-benzoimidazol-5-yl]urea], the IC50 turned out to be 1900 nM. Regarding `Cc1nc2cc(NC(=O)Nc3ccc(Oc4ccccc4)cc3)ccc2n1CCN1CCCC1` [Example 9], the IC50 amounted to 100 nM. As for `Cc1nc2cc(NC(=O)Nc3ccc(Oc4ccccc4)cc3)ccc2n1CCN(C)C` [Example 10, 1-[2-Methyl-1-(2-dimethylaminoethyl)-1H-benzoimidazol-5-yl]-3-(4-phenoxyphenyl)urea], the IC50 was determined as 110 nM. The figure for `O=C(Nc1ccc(Oc2ccccc2)cc1)Nc1ccc2c(c1)ncn2CCN1CCCC1` [Example 11, 1-(4-Phenoxyphenyl)-3-[1-(2-pyrrolidin-1-ylethyl)-1H-benzoimidazol-5-yl]urea] is 140 nM; for `CN(C)CCn1c(-c2ccccc2)nc2cc(NC(=O)Nc3ccc(Oc4ccccc4)cc3)ccc21` [Example 13, 1-[1-(2-Dimethylaminoethyl)-2-phenyl-1H-benzoimidazol-5-yl]-3-(4-phenoxyphenyl)urea] it is 2500 nM. Take `CCc1nc2cc(NC(=O)Nc3ccc(Oc4ccccc4)cc3)ccc2n1CCN1CCCC1` [Example 14, 1-[2-Ethyl-1-(2-pyrrolidin-1-ylethyl)-1H-benzoimidazol-5-yl]-3-(4-phenoxyphenyl)urea]: the IC50 was 300 nM. With `Cc1nc2cc(NC(=O)Nc3ccc(Oc4ccccc4)cc3)ccc2n1CCN1CCCCC1` [Example 15, 1-[2-Methyl-1-(2-piperidin-1-ylethyl)-1H-benzoimidazol-5-yl]-3-(4-phenoxyphenyl) urea], the IC50 was 180 nM.

Consider `CCN1CCCC1Cn1c(C)nc2cc(NC(=O)Nc3ccc(Oc4ccccc4)cc3)ccc21` (stereo not shown) [Example 16, 1-[1-(1-Ethylpyrrolidin-2-ylmethyl)-2-methyl-1H-benzoimidazol-5-yl]-3-(4-phenoxy-phenyl)urea], for which the IC50 worked out at 330 nM. For the molecule `CN(C)Cc1nc2cc(NC(=O)Nc3ccc(Oc4ccccc4)cc3)ccc2[nH]1` [Example 17, 1-(2-Dimethylaminomethyl-1H-benzoimidazol-5-yl)-3-(4-phenoxyphenyl)urea], the IC50 came out at 2140 nM.

Take `Cc1c(C)n(CCN(C)C)c2ccc(NC(=O)Nc3ccc(Oc4ccccc4)cc3)cc12` [Example 18, 1-[1-(2-Dimethylaminoethyl)-2,3-dimethyl-1H-indol-5-yl]-3-(4-phenoxyphenyl)urea]: the IC50 was found to be 1040 nM.

As to `Cc1cc2cc(NC(=O)Nc3ccc(Oc4ccccc4)cc3)ccc2n1CCN(C)C` [Example 19, 1-[1-(2-Dimethylaminoethyl)-2-methyl-1H-indol-5-yl]-3-(4-phenoxyphenyl)urea], the IC50 is 700 nM. To `CN(C)CCn1ccc2cc(NC(=O)Nc3ccc(N4CCCC4)cc3)ccc21` [Example 22, 1-[1-(2-Di-methylaminoethyl)-1H-in-dol-5-yl]-3-(4-pyr-rolidin-1-ylphe-nyl)urea] belongs 4420 nM.

As for `CN(C)CCn1ccc2cc(NC(=O)Nc3ccc(N4CC=CCC4)cc3)ccc21` [Example 24, 1-[4-(3,6-Dihydro-2H-py-ridin-1-yl)phenyl]-3-[1-(2-di-methylaminoethyl)-1H-in-dol-5-yl]urea], the IC50 is 860 nM. To `CN(C)CCn1ccc2cc(NC(=O)Nc3ccc(N4CCSCC4)cc3)ccc21` [Example 26, 1-[1-(2-Di-methylaminoethyl)-1H-in-dol-5-yl]-3-(4-thio-morpholin-4-yl-phe-nyl)urea] belongs 920 nM; to `CC1CCCN(c2ccc(NC(=O)Nc3ccc4c(ccn4CCN(C)C)c3)cc2)C1` (stereo not shown) [Example 29, 1-[1-(2-Di-methylaminoethyl)-1H-in-dol-5-yl]-3-[4-(3-methyl-piperidin-1-yl)phe-nyl]urea], 2910 nM; to `CC1CCN(c2ccc(NC(=O)Nc3ccc4c(ccn4CCN(C)C)c3)cc2)CC1` [Example 33, 1-[1-(2-Di-methylaminoethyl)-1H-in-dol-5-yl]-3-[4-(4-methyl-piperidin-1-yl)phe-nyl]urea], 1240 nM.

For `CC(C)COc1ccc(NC(=O)Nc2ccc3c(ccn3CCN(C)C)c2)c(F)c1` [Example 63, 1-[1-(2-Dimethyl-aminoethyl)-1H-in-dol-5-yl]-3-(2-fluoro-4-iso-butoxyphenyl)urea], the IC50 worked out at 570 nM. Take `CC(C)COc1ccc(NC(=O)Nc2ccc3c(ccn3CCN(C)C)c2)cc1F` [Example 65, 1-[1-(2-Dimethyl-aminoethyl)-1H-in-dol-5-yl]-3-(3-fluoro-4-iso-butoxyphenyl)urea]: the IC50 came to 500 nM. The figure for `CCCCc1ccc(NC(=O)Nc2ccc3c(ccn3CCN(C)C)c2)cc1` [Example 71, 1-(4-Butylphenyl)-3-[1-(2-di-methylaminoethyl)-1H-in-dol-5-yl]urea] is 2650 nM; for `CC(C)COc1ccc(NC(=O)Nc2ccc3c(ccn3CCN(C)C)c2)cc1` [Example 72, 1-[1-(2-Dimethyl-aminoethyl)-1H-in-dol-5-yl]-3-(4-iso-butoxyphenyl)urea] it is 320 nM; for `CN(C)CCn1ccc2cc(NC(=O)Nc3ccc(Oc4cccnc4)cc3)ccc21` [Example 73, 1-[1-(2-Dimethyl-aminoethyl)-1H-in-dol-5-yl]-3-[4-(py-ridin-3-yloxy)phe-nyl]urea] it is 140 nM. As for `COc1ccccc1Oc1ccc(NC(=O)Nc2ccc3c(ccn3CCN(C)C)c2)cc1` [Example 76], the IC50 worked out at 4250 nM. The figure for `CN(C)CCn1ccc2cc(NC(=O)Nc3ccc(Oc4cccc(Cl)c4)cc3)ccc21` [Example 77, 1-[4-(3-Chloro-phenoxy)-phe-nyl]-3-[1-(2-dimethyl-aminoethyl)-1H-in-dol-5-yl]urea] is 700 nM; for `CN(C)CCn1ccc2cc(NC(=O)Nc3ccc(-c4ccccc4)cc3)ccc21` [Example 78, 1-Biphenyl-4-yl-3-[1-(2-di-methylaminoethyl)-1H-in-dol-5-yl]urea] it is 2750 nM.

In the case of `COc1cc(Nc2ccccc2)ccc1NC(=O)Nc1ccc2c(ccn2CCN(C)C)c1` [Example 79, 1-[1-(2-Dimethyl-aminoethyl)-1H-indol-5-yl]-3-(2-meth-oxy-4-phenyl-aminophenyl)-urea], the IC50 was 2130 nM. Regarding `CN(C)CCn1ccc2cc(NC(=O)Nc3ccc(OCc4ccccc4)cc3)ccc21` [Example 80, 1-(4-Benzyloxyphenyl)-3-[1-(2-di-methylaminoethyl)-1H-in-dol-5-yl]urea], the IC50 was found to be 3360 nM. The figure for `CN(C)CCn1ccc2cc(NC(=O)Nc3ccc(-c4ccc(F)cc4)cc3)ccc21` [Example 81, 1-[1-(2-Di-methylaminoethyl)-1H-in-dol-5-yl]-3-(4′-fluoro-biphenyl-4-yl)urea] is 2690 nM; for `Cc1ccc(Oc2ccc(NC(=O)Nc3ccc4c(ccn4CCN(C)C)c3)cc2)cc1` [Example 84, 1-[1-(2-Di-methylaminoethyl)-1H-in-dol-5-yl]-3-(4-p-tolyl-oxyphenyl)urea] it is 400 nM. The figure for `CN(C)CCn1ccc2cc(NC(=O)Nc3ccc(Oc4cccc(C(F)(F)F)c4)cc3)ccc21` [Example 86, 1-[1-(2-Di-methylaminoethyl)-1H-in-dol-5-yl]-3-[4-(3-tri-fluoromethyl-phenoxy)phenyl]urea] is 2780 nM.

With `CN(C)CCn1ccc2cc(NC(=O)Nc3ccc(Oc4ccccc4Cl)cc3)ccc21` [Example 105, 1-[4-(2-Chloro-phenoxy)-phenyl]-3-[1-(2-di-methylaminoethyl)-1H-in-dol-5-yl]urea], the IC50 turned out to be 1000 nM.

In the case of `CN(C)CCn1ccc2cc(NC(=O)Nc3ccc(Oc4ccccc4)nc3)ccc21` [Example 106, 1-[1-(2-Di-methylaminoethyl)-1H-in-dol-5-yl]-3-(6-phenoxy-pyridin-3-yl)urea], the IC50 is 200 nM. For `Cc1cccc(Oc2ccc(NC(=O)Nc3ccc4c(ccn4CCN(C)C)c3)cc2)c1` [Example 107, 1-[1-(2-Di-methylaminoethyl)-1H-in-dol-5-yl]-3-(4-m-tolyl-oxyphenyl)urea], the IC50 worked out at 1000 nM.

Usually IC50 stands for the point on the concentration scale where inhibition reaches its midpoint.
